Data from patent US20090156404A1, “Methods and Compositions for Reducing Stress in Plants” (CROP MICROCLIMATE MANAGEMENT, INC., priority 2007, published 2009).

Key:
Type in all cases: in vivo, tomato
[1] = test system: tomatoes (var. Marglobe); experiment: Freeze event, greenhouse grown tomatoes sprayed with composition (Example 1); settings: exposures to −3.3° C
From the text: Unadapted plants in trays were sprayed with a composition comprised of a particulate material and a plant growth regulating compound mixed with water. The composition was applied using a backpack sprayer in a factorial trial design. The particulate material used was kaolin, applied at 25 and 50 kg/ha. […] Two plant growth regulating compounds, methyl salicylate and sodium salicylate, were each mixed individually with the kaolin. In addition to combinations of kaolin and each of the plant growth regulating compounds, the experiment included applying kaolin alone and each of the plant growth regulating compounds alone, each mixed with water. The concentrations of each of the plant growth regulating compounds in the composition were 1×10^−4M and 1×10^−5M.

[2] = test system: early season tomatoes (var. Mountain Spring); experiment: Irrigated field trial, flower abortion (Example 4); settings: 1 × 10^−5M
From the text: In addition to combinations of kaolin and the plant growth regulating compound, the experiment included applying kaolin alone and the plant growth regulating compound alone, each mixed with water.

[3] = test system: tomatoes (var. Marglobe); experiment: Growth chamber induced temperature/light stress in tomatoes (Example 2); settings: for Chlorosis (%): after five days, 4 to 42° C
Experimental: In this example, a growth chamber was used to induce stress in plants. Tomatoes (var. Marglobe) were greenhouse grown, then adapted in the growth chamber for two days at a constant 20° C. and the highest light intensity produced by the growth chamber. The temperature was then programmed for a multi-step diurnal variation between about 4 and about 42° C. The plants were treated with a composition comprised of a particulate material and a plant growth regulating compound mixed with water. The particulate material used was Kaolin, applied at 25 and 50 kg/ha. […] The plant growth regulating compound was sodium salicylate, which was applied at 1×10^−4M and 1×10^−5M in the composition. In addition to combinations of kaolin and the plant growth regulating compound, the experiment included applying kaolin alone and the plant growth regulating compound alone, each mixed with water.

[4] = test system: Potted tomatoes; experiment: Chill stress of potted tomatoes under field conditions (Example 5); settings: particulate 0 kg/ha, rating 10 completely healthy, 0 dead
From the text: Potted tomatoes under field conditions were subjected to cold temperatures in Australia in September-October 2007. […] The plants were sprayed with a composition comprised of particulate material and a plant growth regulating compound mixed with water. The particulate material used was kaolin, applied at 25 and 50 kg/ha. […] Two plant growth regulating compounds, sodium salicylate and benzyl acetate, were each mixed individually with the kaolin. The concentration of each plant growth regulating compound in the composition was 1×10^−5M. In addition to combinations of kaolin and each of the plant growth regulating compounds, the experiment included applying kaolin alone and sodium salicylate alone each mixed with water. The vigor and health of the plants were evaluated during the period of the trial.

[5] = test system: Field-grown tomatoes (var. Better Boy); experiment: Field trial without irrigation, weekly treatments (Example 3)
From the text: Treatment consisted of a composition comprised of a particulate material and a plant growth regulating compound mixed with water. The particulate material was kaolin, applied at 25 and 50 kg/ha. […] The plant growth regulating compound was sodium salicylate, which was applied at a concentration of 1×10^−5M in the composition. In addition to combinations of kaolin and the plant growth regulating compound, the experiment included applying kaolin alone and the plant growth regulating compound alone, each mixed with water. The trial was conducted in a grower field of sandy soil in Wake County, N.C. under grower conditions. The conditions were considered to be severe, as there was no irrigation and rainfall was insufficient during the trial. Treatments were applied at weekly intervals. The trial was a randomized complete block design with three replications.

COC(=O)c1ccccc1O [Me Salicylate, methyl salicylate]
Mortality (%) ([1]; 1 × 10^−4M): 0%
Mortality (%) ([1]; 1 × 10^−5M): 20%

O=C([O-])c1ccccc1O.[Na+] [Na Salicylate, sodium salicylate]
Mortality (%) ([1]; 1 × 10^−4M): 83%
Mortality (%) ([1]; 1 × 10^−5M): 6.3%
# Aborted Flowers/Plant ([2]; Rating 1): 20.75
# Aborted Flowers/Plant ([2]; Rating 2): 3.94
Growth (cm) ([3]; 1 × 10^−4M): 1.9 cm
Chlorosis (%) ([3]; 1 × 10^−4M): 7.5%
Growth (cm) ([3]; 1 × 10^−5M): 1.9 cm
Chlorosis (%) ([3]; 1 × 10^−5M): 8.8%
Plant Vigor/Health ([4]; 7/10/2007, growth compound 0.8 g/ha): 7.7 a
Plant Vigor/Health ([4]; 7/10/2007, growth compound 1.6 g/ha): 7.3 a
Plant Vigor/Health ([4]; 12/9/2007, growth compound 0.8 g/ha): 10 a
Plant Vigor/Health ([4]; 12/9/2007, growth compound 1.6 g/ha): 10 a
Plant Vigor/Health ([4]; 26/09/2007, growth compound 0.8 g/ha): 6.5 ab
Plant Vigor/Health ([4]; 26/09/2007, growth compound 1.6 g/ha): 6.5 ab
# flower clusters/plant ([5]; Rating 1, 1 × 10^−5M): 2.61
# Fruit > 2 cm ([5]; Rating 2, 1 × 10^−5M): 1.05
# flower clusters/plant ([5]; Rating 2, 1 × 10^−5M): 3.78
# Mature blossoms ([5]; Rating 3, 1 × 10^−5M): 2.89
# clusters/plant ([5]; Rating 3, 1 × 10^−5M): 0.75
Fruit > 1 cm ([5]; Rating 3, 1 × 10^−5M): 1.46
stress protection (in words) ([5]; plant growth, flowering, fruit clusters per plant, no irrigation): values intermediate between the untreated plants and the plants treated with both
